Data on 29 compounds can be found in ChEMBL document CHEMBL1133388, “4-Aza-2,3-dehydro-4-deoxypodophyllotoxins: simple aza-podophyllotoxin analogues possessing potent cytotoxicity” (Bioorg Med Chem Lett, 2000).

≈ marks a conversion by molar mass, not a printed value. A value given as a limit tells only on which side of the number the result lay.

The test deals with P388. Briefly: Cytotoxicity against P-388 leukemia cells. The following applies: Mus musculus. The test is classed as functional, cell-based.
Usually IC50 stands for the concentration at which inhibition is half-maximal. In turn, `COc1cc(C2C3=C(O)OCC3=Nc3cc4c(cc32)-c2ccccc2C4)cc(OC)c1OC` (centres undefined) displayed an IC50 of 0.92 µg/mL (≈ 2.08 µM).

Consider `O=C1OCc2nc3cc4c(cc3c(-c3ccccc3)c21)OCO4`, for which the half-maximal inhibitory concentration (IC50) was 60 µg/mL (≈ 197 µM).

The compound `COc1cccc(C2C3=C(O)OCC3=Nc3cc4c(cc32)OCO4)c1` (centres undefined) yielded a half-inhibitory concentration (IC50) of 0.0053 µg/mL (≈ 0.0157 µM). Compared with the last compound, the IC50 is about 11000-fold lower. With `COc1cc2c(cc1OC)C(c1cc(OC)c(OC)c(OC)c1)C1=C(O)OCC1=N2` (centres undefined), the midpoint of inhibition, the IC50, lay at 4.9 µg/mL (≈ 11.9 µM). This IC50 lies about 920-fold higher than the previous one. For `COc1cc(-c2c3c(nc4cc5c(cc24)CCC5)COC3=O)cc(OC)c1OC`, the half-maximal inhibitory concentration (IC50) was over 100 µg/mL. The result for `OC1=C2C(=Nc3cc4c(cc3C2c2ccccc2)OCO4)CO1` (centres undefined) reads 0.0053 µg/mL (≈ 0.0172 µM). The result for `COc1ccc(C2c3cc4c(cc3NC3COC(=O)C32)OCO4)cc1OC` (centres undefined) reads 0.048 µg/mL (≈ 0.13 µM); that for `COc1cc(-c2c3c(nc4cc5c(cc24)OCCO5)COC3=O)cc(OC)c1OC`, 80 µg/mL (≈ 195 µM); that for `COc1cc(-c2c3c(nc4cc(OC)c(OC)c(OC)c24)COC3=O)cc(OC)c1OC`, 29 µg/mL (≈ 65.7 µM). The result for `COc1cc([C@@H]2c3cc4c(cc3[C@H](O)[C@H]3COC(=O)[C@H]23)OCO4)cc(OC)c1OC` [PODOFILOX] reads 0.0043 µg/mL (≈ 0.0104 µM). On to `COc1cc(C2C3=C(O)CCC3=Nc3cc4c(cc32)OCO4)cc(OC)c1OC` (centres undefined), for which inhibition was half-maximal at 0.028 µg/mL (≈ 0.0708 µM) (IC50). The figure for `COc1ccc(-c2c3c(nc4cc(OC)c(OC)cc24)COC3=O)cc1OC` is 39 µg/mL (≈ 102 µM); for `COc1cc(-c2c3c(nc4cc5c(cc24)OCO5)CCC3=O)cc(OC)c1OC` it is 71 µg/mL (≈ 180 µM); for `COc1cc(-c2c3c(nc4cc5c(cc24)OCO5)COC3=O)cc(OC)c1OC` it is over 100 µg/mL.

On to `OC1=C2C(=Nc3cc4c(cc3C2c2ccc3c(c2)OCO3)OCO4)CO1` (centres undefined), for which half-maximal inhibition (IC50) required 0.03 µg/mL (≈ 0.0854 µM). The figure for `COc1ccc(C2C3=C(O)OCC3=Nc3cc(OC)c(OC)cc32)cc1OC` (centres undefined) is 0.76 µg/mL (≈ 1.98 µM). The result for `COc1cccc(-c2c3c(nc4cc5c(cc24)OCO5)COC3=O)c1` reads over 100 µg/mL; that for `COc1cc(C2C3=C(COC3=O)Nc3cc(OC)c(OC)c(OC)c32)cc(OC)c1OC` (centres undefined), 2.6 µg/mL (≈ 5.86 µM); that for `COc1cc(-c2c3c(nc4cc5c(cc24)-c2ccccc2C5)COC3=O)cc(OC)c1OC`, 63 µg/mL (≈ 143 µM).

As for `O=C1OCc2nc3cc4c(cc3c(-c3ccc5c(c3)OCO5)c21)OCO4`, the concentration for half-maximal inhibition (IC50) is over 100 µg/mL. Turning to `COc1cc(C2C3=C(O)OCC3=Nc3cc4c(cc32)CCC4)cc(OC)c1OC` (centres undefined), it took 0.0041 µg/mL (≈ 0.0104 µM) to reach half-maximal inhibition (IC50). The result for `COc1cc(C2C3=C(COC3=O)Nc3cc4c(cc32)OCO4)cc(OC)c1OC` (centres undefined) reads 0.0018 µg/mL (≈ 0.00453 µM); that for `COc1cc(C2C3=C(O)OCC3=Nc3cc4c(cc32)OCCO4)cc(OC)c1OC` (centres undefined), 0.0017 µg/mL (≈ 0.00413 µM); that for `COc1ccc(C2C3=C(O)OCC3=Nc3cc4c(cc32)OCO4)cc1` (centres undefined), 0.13 µg/mL (≈ 0.385 µM). The result for `COc1ccc(-c2c3c(nc4cc5c(cc24)OCO5)COC3=O)cc1` reads over 100 µg/mL; that for `COc1cc2nc3c(c(-c4ccc5c(c4)OCO5)c2cc1OC)C(=O)OC3`, 2 µg/mL (≈ 5.47 µM); that for `COc1cc2c(cc1OC)C(c1ccc3c(c1)OCO3)C1=C(O)OCC1=N2` (centres undefined), 0.77 µg/mL (≈ 2.1 µM). Consider `COc1cc2nc3c(c(-c4cc(OC)c(OC)c(OC)c4)c2cc1OC)C(=O)OC3`, for which the IC50 is over 100 µg/mL. The result for `COc1ccc(-c2c3c(nc4cc5c(cc24)OCO5)COC3=O)cc1OC` reads 40 µg/mL (≈ 109 µM).
